Experimental data taken from patent US11572590B2, “Methods for evaluating tumor cell spheroids using 3D microfluidic cell culture device” (Dana-Farber Cancer Institute, Inc., priority 2017, dated 2023).
Like-named read-outs stand apart in the source and are kept apart here.

Experiments:
off-target kinases = off-target kinases (Homo sapiens, UniProt P06241); experiment: SelectScreen Kinase Profiling, single point inhibition and IC50 for off-target kinases; type: biochemical; parameters: other: FYN A; 1000 μM; details: FYN A, LanthaScreen Binding
off-target kinases, sequence (P06241 whole entry): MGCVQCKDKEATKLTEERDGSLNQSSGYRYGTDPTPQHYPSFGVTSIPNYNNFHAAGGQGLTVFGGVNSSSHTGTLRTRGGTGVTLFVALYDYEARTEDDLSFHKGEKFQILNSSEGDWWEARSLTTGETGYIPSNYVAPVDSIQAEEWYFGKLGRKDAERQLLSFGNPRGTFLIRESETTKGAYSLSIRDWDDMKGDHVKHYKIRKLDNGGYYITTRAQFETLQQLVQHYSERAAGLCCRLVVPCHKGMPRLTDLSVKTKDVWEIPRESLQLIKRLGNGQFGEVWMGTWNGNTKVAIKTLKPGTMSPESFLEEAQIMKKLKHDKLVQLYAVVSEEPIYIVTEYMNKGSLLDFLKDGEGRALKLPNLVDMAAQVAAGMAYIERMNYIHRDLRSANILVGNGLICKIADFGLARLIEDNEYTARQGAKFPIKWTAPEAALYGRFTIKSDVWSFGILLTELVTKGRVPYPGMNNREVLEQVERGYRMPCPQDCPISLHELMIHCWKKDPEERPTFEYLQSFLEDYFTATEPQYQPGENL
Procedure: Biochemical single point inhibition and IC50 concentrations for TBK1, IKKε (IKBKE), and off-target kinases were determined at ThermoFisher Scientific using SelectScreen Kinase Profiling Services (Madison, Wis., USA) (Tables S4A and S4B-1-7). To determine cellular potency, the human colorectal cancer carcinoma cell line HCT116 (ATCC, Manassas, Va.) was maintained in T175 flasks in complete RPMI medium; RPMI 1640 supplemented with 10% FBS, 1× Penicillin-Streptomycin solution and 1×MEM (non-essential amino acids). HCT116 cells were grown to 90-95% confluency in T175 flasks containing complete RPMI medium and transfected in bulk using Lipofectamine 2000 (Invitrogen, Carlsbad, Calif.) with 70 μg of ISG54-luciferase reporter plasmid (Elim Biopharmaceuticals Inc., Hayward, Calif.). The reporter plasmid contains a luciferase gene expression cassette under the transcriptional regulation of the promoter of the human interferon stimulated gene 54 (ISG54). […] The assay plates were incubated for 5 hours at 37° C., followed by addition of One-Glo luciferase firefly reagent (Promega, Madison, Wis.) at 1:1 volume/well and luminescence was measured in an EnVision Multilabel Plate Reader (PerkinElmer, Santa Clara, Calif.). The EC50 values were calculated from the fit of the dose-response curves to a four-parameter equation. […]

[1] = test system: Jurkat T cell leukemia cells; experiment: IL-2 secretion by Jurkat cells on anti-CD3 coated plates; type: cell-based; details: dose titration, 24 hours
Procedure: Freshly isolated human CD4+ and CD8+ T cells were obtained from AllCells (Alameda, Calif., USA). Cells were spun down and resuspended in serum free Xvivo15 media (Lonza Walkersville, Inc., Chicago, Ill., USA) supplemented with 5 ng/mL […] and incubated overnight at 37° C. Cells were plated on anti-CD3 coated plates (5 μg/mL OKT3, eBioscience, Dallas, Tex., USA, overnight) with 2 μg/mL anti-CD28 (eBioscience, Dallas, Tex., USA). Cells are treated in replicate plates with a dose-titration of Compound 1 for 24 hours for IL-2 and 96 hours for IFNγ. IL-2 and IFNγ in the supernatant were measured using single- or multi-plex immunoassay (Mesoscale Discovery, Rockville, Md., USA). Jurkat T cell leukemia cells (clone E61 obtained from ATCC) plated on anti-CD3 coated plates were treated with a dose titration of Compound 1 for 24 hours. IL-2 in the supernatant was measured as described above.

[2] = test system: CT26 spheroids (lacking immune cells); experiment: Bead-based cytokine profiling of CT26 spheroids lacking immune cells; type: cell-based, murine; details: Day 1, 3, and 6
Procedure: Fresh tumor specimens (murine and human patients) were received in media (DMEM) on ice and minced in a 10 cm dish (on ice) using sterile forceps and scalpel. Minced tumor was resuspended in DMEM ([…], […] sodium pyruvate, 1:100 penicillin-streptomycin) (Corning CellGro, Manassas, Va.) +10% FBS (Gemini Bio-Products, West Sacramento, Calif.), 100 U/mL collagenase type IV (Life Technologies, Carlsbad, Calif.), and 15 mM HEPES (Life Technologies, Carlsbad, Calif.), except for CT26 tumors that were prepared in RPMI. Samples were pelleted and resuspended in 10-20 mL media. Red blood cells were removed from visibly bloody samples using RBC Lysis Buffer (Boston Bio-Products, Ashland, Mass.). […]
Two multiplex assays were performed utilizing a bead-based immunoassay approach, the Bio-Plex Pro™ Human Cytokine 40-plex Assay (Cat #171AK99MR2) and Bio-Plex Pro™ Mouse Cytokine Panel 1, 23-plex (Cat #M60009RDPD) on a Bio-plex 200 system (Cat #171000201). […] Fold changes relative to the MDOT/PDOT control were calculated and plotted as log 2FC. Lower and upper limits of quantitation (LLOQ/ULOQ) were imputed from standard curves for cytokines above or below detection. […]

N#Cc1cc(-c2ncnc(Nc3ccc(N4CCN(C5COC5)CC4)cc3)n2)ccc1OC1CCOCC1 [Compound 1, 5-(4-((4-(4-(oxetan-3-yl)piperazin-1-yl)phenyl)amino)-1,3,5-triazin-2-yl)-2-((tetrahydro-2H-pyran-4-yl)oxy)benzonitrile]
inhibition (off-target kinases; read-out: % Inhibition 1): 16% | inhibition (off-target kinases; read-out: % Inhibition 2): 21% | secretion of IL-2 from Jurkat cells [1]: enhanced secretion | immune suppressive cytokine elaboration by CT26 cell line spheroids [2]: effectively blocked
